Converted amounts (≈) assume the structure as drawn.
Tests used:
ICR mice = assay: Acute toxicity test in ICR mice; format: in vivo
Experimental: (§1) 0.5 ml of a pharmaceutical solution prepared by dissolving a compound of the present invention in a physiological saline solution for injection (80 mg/ml) was injected to the caudal veins of ICR mice (4 weeks old, male, body weight: approx. 20 g). Two weeks after the administration, the mice were observed whether they were dead or not. […] Therefore, the LD50 of this compound is >2 g/kg (>40 mg/mouse).

[1] = Acute toxicity test in ICR mice; format: in vivo; details: mouse, in vivo, iv
Experimental: as §1

S. Aureus 133 = assay: Antibacterial activity test, MIC by two-fold dilution method; format: cell-based, Staphylococcus aureus (methicillin-resistant, MRSA); details: Staphylococcus aureus, MRSA, read-out: Minimum Inhibition Concentration
Experimental: (§2) The measurement was carried out in the following manner: 10^6 CFU/ml of a bacterium to be tested was inoculated on a Medium N for disc susceptibility test (manufactured by Nissui Pharmaceutical Co., Ltd.), and cultivated at 35° C. for 18 to 20 hours.

S. Aureus 126 = assay: as above; format: cell-based, Staphylococcus aureus (methicillin-resistant, MRSA); details: Staphylococcus aureus, MRSA, read-out: Minimum Inhibition Concentration
Experimental: as §2

C. freundii GN346/16 = assay: as above; format: cell-based; details: Citrobacter freundii; C. freundii GN346/16; 10^6 CFU/ml, 35° C., 18 to 20 hours; read-out: Minimum Inhibition Concentration
Experimental: as §2

E. cloacae G-0008 = assay: as above; format: cell-based; details: Enterobacter cloacae, G0008; E. cloacae G-0008; 10^6 CFU/ml, 35° C., 18 to 20 hours; read-out: Minimum Inhibition Concentration
Experimental: as §2

P. aeruginosa E-2 = assay: as above; format: cell-based; details: Pseudomonas aeruginosa, E2, read-out: Minimum Inhibition Concentration
Experimental: as §2

S. Aureus 209P JC-1 = assay: as above; format: cell-based; details: Staphylococcus aureus; S. Aureus 209P JC-1; 10^6 CFU/ml, 35° C., 18 to 20 hours; read-out: Minimum Inhibition Concentration
Experimental: as §2

P. aeruginosa GN10362 = assay: as above; format: cell-based; details: Pseudomonas aeruginosa, GN10362, read-out: Minimum Inhibition Concentration
Experimental: as §2

S. epidermidis ATCC14990 = assay: as above; format: cell-based; details: Staphylococcus epidermidis; S. epidermidis ATCC14990; 10^6 CFU/ml, 35° C., 18 to 20 hours; read-out: Minimum Inhibition Concentration
Experimental: as §2

S. marcescens No. 1 = assay: as above; format: cell-based; details: Serratia marcescens; S. marcescens No. 1; 10^6 CFU/ml, 35° C., 18 to 20 hours; read-out: Minimum Inhibition Concentration
Experimental: as §2

M. morganii 1510/S-1 = assay: as above; format: cell-based; details: Morganella morganii, 1510/S1; M. morganii 1510/S-1; 10^6 CFU/ml, 35° C., 18 to 20 hours; read-out: Minimum Inhibition Concentration
Experimental: as §2

P. vulgaris GN76 = assay: as above; format: cell-based; details: Proteus vulgaris, GN76, read-out: Minimum Inhibition Concentration
Experimental: as §2

E. coli NIHJ JC-2 = assay: as above; format: cell-based; details: Escherichia coli, NIHJJC2; E. coli NIHJ JC-2; 10^6 CFU/ml, 35° C., 18 to 20 hours; read-out: Minimum Inhibition Concentration
Experimental: as §2

K. pneumoniae PC1602 = assay: as above; format: cell-based; details: Klebsiella pneumoniae; K. pneumoniae PC1602; 10^6 CFU/ml, 35° C., 18 to 20 hours; read-out: Minimum Inhibition Concentration
Experimental: as §2

CCO/N=C(\C(=O)N[C@@H]1C(=O)N2C(C(=O)[O-])=C(C[n+]3cc4sccn4c3CNC=O)CS[C@H]12)c1nsc(N)n1 [Example 49, (6R,7R)-7-[(Z)-2-(5-Amino-1,2,4-thiadiazol-3-yl)-2-ethoxyiminoacetamide]-3-[5-(formylamino)methylimidazo[5,1-b]thiazolium-6-yl]methyl-3-cephem-4-carboxylate]
survival two weeks after administration (ICR mice; ICR mice, 0.5 ml of 80 mg/ml solution, caudal vein, 3 cases): all (3 cases) alive | LD50 (ICR mice; mouse, in vivo): > 40 mg/mouse | LD50 at 336 h [1]: > 2000 mg/kg | MIC (S. Aureus 133): 6.25 µg/mL (≈ 10.6 µM) | MIC (S. Aureus 126): 6.25 µg/mL (≈ 10.6 µM) | MIC (C. freundii GN346/16): 0.05 µg/mL (≈ 0.0845 µM) | MIC (E. cloacae G-0008): 0.05 µg/mL (≈ 0.0845 µM) | MIC (P. aeruginosa E-2): 1.56 µg/mL (≈ 2.64 µM) | MIC (S. Aureus 209P JC-1): 0.78 µg/mL (≈ 1.32 µM) | MIC (P. aeruginosa GN10362): 1.56 µg/mL (≈ 2.64 µM) | MIC (S. epidermidis ATCC14990): 0.78 µg/mL (≈ 1.32 µM) | MIC (S. marcescens No. 1): 0.1 µg/mL (≈ 0.169 µM) | MIC (M. morganii 1510/S-1): ≤ 0.025 µg/mL | MIC (P. vulgaris GN76): 0.39 µg/mL (≈ 0.659 µM) | MIC (E. coli NIHJ JC-2): 0.05 µg/mL (≈ 0.0845 µM) | MIC (K. pneumoniae PC1602): 0.05 µg/mL (≈ 0.0845 µM)

From patent US5663162A, “Cephem derivatives” (priority 1993, dated 1997)
